Structures are written as SMILES.

In data set [1] the target is T1, human serotonin 5-HT1a receptor (Homo sapiens, UniProt P08908).
T1 construct: expressed in transfected cells; host or cells: CHO-K1 (membranes)
T1 sequence (P08908 1-422): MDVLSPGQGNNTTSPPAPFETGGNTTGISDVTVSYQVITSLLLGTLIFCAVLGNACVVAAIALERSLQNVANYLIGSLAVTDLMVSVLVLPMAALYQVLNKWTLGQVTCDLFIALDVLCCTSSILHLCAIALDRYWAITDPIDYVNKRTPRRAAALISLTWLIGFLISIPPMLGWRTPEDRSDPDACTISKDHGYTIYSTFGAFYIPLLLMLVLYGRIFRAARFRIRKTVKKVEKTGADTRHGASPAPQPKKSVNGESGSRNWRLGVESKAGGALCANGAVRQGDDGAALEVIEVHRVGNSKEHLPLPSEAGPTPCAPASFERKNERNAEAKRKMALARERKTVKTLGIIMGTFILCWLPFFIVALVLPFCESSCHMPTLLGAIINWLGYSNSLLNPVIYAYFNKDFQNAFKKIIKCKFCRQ
Nature of the data set: GTPγS assay, recombinant CHO-K1 membranes. Format: biochemical. To be noted: human recombinant cell lines; FIG. 1. As to the method:
Eltoprazine was tested for activity on the human serotonin 5-HT1a and 5-HT1b receptors using a GTPγS assay. Recombinant membranes obtained from CHO-K1 cells expressing either the 5-HT1a or 5-HT1b receptors were mixed with GDP (volume:volume) and incubated for at least 15 min on ice. In parallel, GTPγ[35S] was mixed with the beads (volume:volume) just before starting the reaction. The following reagents were successively added in the wells of an Optiplate (Perkin Elmer): 50 μl of test compound, 20 μl of the membranes:GDP mix, 10 μl of assay buffer (for agonist testing) and 20 μl of the GTPγ[35S]:beads mix. The plates were covered with a top seal, shaken on an orbital shaker for 2 min, and then incubated for 1 h at room temperature. Then the plates were centrifuged for 10 min at 2000 rpm, incubated at room temperature 1 h and counted for 1 min/well with a PerkinElmer TopCount reader.

Data set [2] has as its system unilaterally 6-OHDA-lesioned rats. The experiment in a line: Turning behaviour induced by high dose of L-DOPA in 6-OHDA-lesioned rats. It is filed as in vivo, Sprague Dawley rats. To be noted: 0.3, 1.25 and 5 mg/kg, 30 min before the test; FIG. 3. As to the method: Male Sprague Dawley rats (Elevage Janvier, Le Genest Saint Isle, France) weighing between 220 and 250 g at the beginning of the study are used in these experiments. They are housed under a 12 h light/dark cycle with free access to standard pelleted food and tap water. Animal treatment and experimental procedures are approved by local ethical committees (Regierungspräsidium Darmstadt; Germany).
Dopamine-denervating lesions are performed on rats anaesthetized with a 5:1 mixture of ketamine and xylazine (1 ml/kg, i.p.). […] The animals' turning behaviour is recorded in an automated rotometer (TSE Rotameter System, TSE-Systems GmbH, Bad Homburg, Germany) over a 90 min period after the intraperitoneal (i.p.) injection of 2.5 mg/kg dexamphetamine sulphate dissolved in saline. […]
In order to evaluate the effect of eltoprazine on parkinsonian symptoms and its interaction with L-DOPA, rotational behaviour is evaluated. The numbers of ipsilateral and contralateral turns are recorded in an automated rotometer (TSE Rotameter System, TSE-Systems GmbH, Bad Homburg, Germany) over a period of 180 min. […]

For the next data set, the system named is Sprague-Dawley rats. Nature of the data set: Open field locomotor activity. It is filed as in vivo. On the procedure: For contextual fear conditioning, open field, fear potentiated startle and elevate plus maze, experimentally naive adult male Sprague-Dawley rats (250-300 g; Janvier, France) were housed in groups of four per cage. Colony room temperature and humidity were maintained respectively at 20±1° C. and 60±3%. Food and water were available ad libitum and the animals were kept under an alternating 12 h/12 h day-night cycle (lights on at 07.00) for at least 6 days before the experiments were started. All experiments were conducted during the light period of the day-night cycle. For the Vogel test, male experimentally naive Wistar rats (180-220 g, State Breeding Farm “Rappolovo”, St. Petersburg, Russia; N=109) were used. Each animal was used only once.
Eltoprazine hydrochloride was dissolved in sterile water. […]
Locomotor activity was measured in four perspex boxes (ENV-515-16, 43.2 cm×43.2 cm×30 cm) placed in a noise-proof chamber equipped with ventilator and a source of white light (5.6 W) placed 55 cm above floor. […] 4 arrays of 16 infrared photo beams placed 3 cm above the floor measured horizontal activity. […] The output from the counters was integrated and analysed on-line by an PC computer. […]
Total distance travelled during the 60 min was taken for statistical analysis. Data are analysed by one-way ANOVA followed by Dunnett's test.

The subject of a further data set is 5-HT1a receptor. The note with it: Schipper et al. 1990; cited from earlier work.
The target in another data set is 5-HT1b receptor (Rattus norvegicus, UniProt P28564). The note with it: Schipper et al. 1990; cited from earlier work.
Sequence of 5-HT1b receptor (P28564 whole entry): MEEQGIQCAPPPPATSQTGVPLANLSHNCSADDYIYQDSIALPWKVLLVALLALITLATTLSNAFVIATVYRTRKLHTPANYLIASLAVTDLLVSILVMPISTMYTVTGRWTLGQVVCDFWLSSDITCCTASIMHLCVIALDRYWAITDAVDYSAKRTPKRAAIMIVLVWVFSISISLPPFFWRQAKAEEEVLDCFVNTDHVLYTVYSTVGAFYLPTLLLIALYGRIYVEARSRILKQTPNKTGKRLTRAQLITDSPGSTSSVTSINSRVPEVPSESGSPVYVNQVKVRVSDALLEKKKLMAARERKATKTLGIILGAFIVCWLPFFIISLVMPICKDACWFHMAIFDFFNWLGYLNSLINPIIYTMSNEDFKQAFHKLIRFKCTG
A further data set has as its system patients. The note with it: clinical trials, de Koning et al. 1994; cited from earlier work.

Consider `c1cc2c(c(N3CCNCC3)c1)OCCO2` [eltoprazine, 1-(2,3-dihydro-1,4-benzodioxin-5-yl)piperazine], for which, in data set [1], the “functional activity at 5-HT1a receptor” value is listed as “partial agonistic action”. In addition, in data set [2], the “interference with the antiparkinsonian effect of L-DOPA (turning behaviour)” value is “does not interfere”. Further, the “total distance travelled in the open field” value with Sprague-Dawley rats (1.25 mg/kg s.c.) is listed as “significantly increased”. In addition, the “locomotor activity in the open field at anxiolytic doses” value in the data set with Sprague-Dawley rats (acute s.c., 60 min before the test, FIG. 5) is reported as “not related to non-specific increase in locomotor activation”. The “effect on 5-HT1a receptor” value with 5-HT1a receptor is listed as “agonistic effect”. For the same compound, at 5-HT1b receptor, the “effect on 5-HT1b receptor” value is “agonistic effect”. The clinical safety entry in the data set on patients is listed as “clinically safe”.

The values are drawn from patent US20120136005A1, “E[…] THE TREATMENT OF ANXIETY” (MERZ PHARMA GmbH & CO. KGaA, priority 2009, published 2012).
